Laboratory results reported in ChEMBL document CHEMBL1128155, “Synthesis and structure-activity relationships of 2-(R) and (S) pyrrolidine-modified analogs of the cholinergic channel activator, ABT-418” (Bioorg Med Chem Lett, 1995).
pKi: −log10 of the molar value. “And” between values parts separate entries of the source, which are not always exact repeats. Equal entries are not always repeated.

Test: Displacement of [3H](-)-cytisine from rat brain nicotinic acetylcholine receptors (nAChR)

Compound | pKi
Cc1cc([C@@H]2C[C@@H](CO)CN2C)on1 | 5.18
Cc1cc([C@@H]2C[C@H](CF)CN2C)on1 | 5.77
Cc1cc([C@@H]2C[C@@H](C)CN2C)on1 | 7.72
Cc1cc([C@H]2C[C@H](C)CN2C)on1 | 6.02
Cc1cc([C@H]2C[C@@H](CO)CN2C)on1 | 4.96
Cc1cc([C@H]2C[C@H](CO)CN2C)on1 | 5.22
Cc1cc([C@H]2CCCN2C)on1 | 8.13
Cc1cc([C@H]2CC[C@H](C)N2C)on1 | 7.15 and 6.78
Cc1cc([C@@H]2C[C@@H](CF)CN2C)on1 | 6.81
Cc1cc([C@H]2C[C@H](CF)CN2C)on1 | 4.77
Cc1cc([C@@H]2C[C@H](CO)CN2C)on1 (single isomer, unassigned) | 5.09
Cc1cc([C@@H]2CCCN2C)on1 [ABT-418] | 8.52
